Test results as given in US6673768B1, “Transgenic animal models for cardiac hypertrophy and methods of use thereof (treating)” (Board of Regents, The University of Texas System, priority 1997, dated 2004).
Blank lines part the entries; values can stand above or below the molecule they belong to.

How the values were obtained:
[1] = test system: tetracycline-controlled transactivator (tTA); assay: tTA-dependent luciferase target gene expression in primary rat cardiomyocytes; type: cell-based
Experimental: Cardiomyocytes were co-transfected with tTA expression plasmid pUHD15-1 and either a tTA-dependent luciferase construct pUHC13-3 or empty vector as control. 16 hours after transfection, cells were incubated in either medium without doxcycline (DOX) or medium with doxcycline. […] Open circles, empty vector, no DOX; filled circles, empty vector, plus DOX; open triangles, pUHC 13-3, no DOX; filled triangles, pUHC13-3, plus DOX. FIG. 11B is a bar graph depicting the ability of tTA to stimulate transcription of the target gene and the inhibitory effect of doxcycline 12 hours after transfection.
Tetracycline-controlled transactivator (tTA) expression plasmid pUHD15-1 encodes chimeric protein tTA under the control of the human cytomegalovirus (CMV) promoter and enhancer. tTA consists of amino acid residues 1-207 from the tetR protein and residues 363-490 from VP16 (Gossen and Bujard (1992) Proc. Natl. Acad. Sci. USA 89:5547-5551.
Plasmid pUHD10-3 contains a chimeric tet operon/CMV minimal promoter upstream of multiple cloning sites (Bujard, 1996). pUHC13-3 is a firefly luciferase reporter gene expression plasmid driven by the chimeric tet operon/CMV minimal promoter (Gossen and Bujard (1992).
The firefly luciferase gene as a reporter gene was under control of the chimeric tet operon/CMV minimal promoter in pUHC13-3. Transient transfections were carried out as described in Example 3. […]

CaM kinase II = assay: Autonomous CaM kinase II activity in neonatal rat heart tissue slices; type: biochemical; settings: for CaMKII autonomous activation, increase over unstimulated heart tissues: 30 seconds after treatment, DOB 10 μM, ISO 100 μM
Experimental: FIG. 9 is a bar graph depicting stimulation of CaMKII activity by b1-adrenergic receptor in neonate rat heart tissue. Neonatal (1-4 day old) heart tissue slices were isolated and treated with isoproterenol (ISO, 100 μM), dolbutamine (DOB, 10 μM), or vehicle alone (control). Propanolol (PROP, 20 μM) was added 2 minutes before agonists were added. After 30 seconds of treatment, autonomous CaMKII activity was assayed. Data are shown as percentage of the ratio of calcium independent activity divided by total activity and represented as the mean±SD from at least three experiments.
Determination of autonomous CaM kinase II activity. CaM kinase II autonomous activity was determined in rat heart tissue homogenates using the synthetic peptide substrate, autocamtide-2 (KKALRRQETVDAL) (Mar et al. (1990) Mol. Cell. Biol. 10:4271-4283; and Farrance et al. (1992) J. Biol. Chem. 267:17234-17240) as exogenous substrate. […] Autonomous CaM kinase II activity was assayed by the phosphorylation of autocamtide-2 in the absence of Ca^2+/calmodulin and expressed as a proportion of activity obtained in the presence of these cofactors. Tissue slices were incubated in the presence or absence of various drug compounds for required time. At termination of the incubation the tissue slices were homogenized in ice-cold buffer (20 mM Tris-HCl, pH 7.5, 0.5 mM EGTA, 1.0 mM EDTA, 2.0 mM dithiothreitol, 10 mM sodium pyrophosphate, 0.4 mM ammonium molybdate, […]) by sonication. Supernatant were cleared by centrifugation (12,000×g, 2 minutes) and then assayed in a reaction mixture containing 50 mM PIPES (pH 7.0), 10 mM MgCl2 0.1 mg/ml bovine serum albumin, […], 20 mM [γ-^32P] […] Endogenous protein was sedimented by centrifugation and supernatants containing autocamtide-2 were spotted onto p81 phosphocellulose strips, washed 5 times, dried and ^32P-PO4 content was quantitated by Cerenkov radiation.
These experiments determined whether signaling through β1-adrenergic receptor subtype could activate cardiac CaMKII. […]

cardiac α-actin promoter = assay: Cardiac α-actin promoter-reporter (luciferase) activity in transfected cardiomyocytes exposed to agonists; type: cell-based, rat; settings: for induction of cardiac α-actin promoter-reporter activity over control cells: PE 100 μM, TGF-β1 1 ng/ml
Experimental: (§1) FIG. 10 presents data showing the effects of adrenoceptor agonists on promoter-reporter activities for ANF, skeletal a-actin and cardiac a-actin, and a time course of effects of DOB on ANF message levels. FIGS. 10A, B, and C are bar graphs showing luciferase reporter levels after transfection of ANF, skeletal α-actin, and cardiac a-actin, respectively, into ventricular myocardial cells, and treatment, 24 hours after transfection, with PE (100 μM), DOB (10 μM), or TGF-β1 (1 ng/ml). Values are corrected for transfection efficiency and reported as the mean±SD from at least three experiments. FIG. 10D. Ventricular myocardial cells were switched to serum-free medium. DOB was added to the medium at various time points. “Control” represents cells treated with the DOB vehicle. 24 hours after incubation, total RNA was extracted and analyzed by Northern blot. Results are representative of n=3 or greater for each time point.
Transient transfection. It was necessary to culture the isolated cardiomyocytes in serum-free medium to eliminate effects on gene expression mediated through serum response elements. Primary myocardial cultures were first washed with serum-free growth medium and then maintained in serum-free Medium 199 supplemented with Nutridoma HU (Boehringer Mannheim Corporation, Indianapolis, Ind.) which contained human serum albumin, bovine insulin and human transferrin. Transfection were carried out by using a liposome-based transfecting agent, Lipofectamine (Life Technologies, Grand Island, N.Y.). The procedures used for transient transfection were followed as the manufacturer's instructions. The optimal values including DNA concentration, lipofectamine concentration, and time length for tansfection were determined prior to experiments carried out in this study. […]
(§2) For α1-adrenergic stimulation, 100 μM PE (Sigma, St. Louis, Mo.) was added to the cells. […] Chemiluminescent β-galactosidase activity was assayed by using an aliquot of the same cell lysates collected for the luciferase assay and measured in the same luminometer as described below. […]

[2] = test system: skeletal α-actin promoter; assay: Skeletal α-actin promoter-reporter (luciferase) activity in transfected cardiomyocytes exposed to agonists; type: cell-based, rat
Experimental: as §1
Transient transfection. […] The optimal values including DNA concentration, lipofectamine concentration, and time length for tansfection were determined prior to experiments carried out in this study. […]
as §2

[3] = test system: neonatal rat cardiomyocytes; assay: AngII- and PE-induced hypertrophy of primary cardiomyocytes (anti-α-actinin staining, cell size and sarcomeric assembly); type: cell-based; settings: 72 hr; AngII 10 nM or PE 10 μM
Experimental: A-F, Primary rat cardiocytes in serum-free medium were stimulated with AngII (10 nM) or PE (10 μm) for 72 hours. Cells were then fixed and stained with anti-α-actinin antibody to reveal sarcomeres and Hoechst stain to reveal nuclei.
To visualize primary cardiomyocytes and their sarcomeric organization, anti-α-actinin mouse monoclonal antibody was used (Sigma). […] Cells were washed in 1×phosphate-buffered saline (PBS), fixed in 3.7% paraformaldehyde for 5 minutes, washed three times with 1×PBS and then pre-blocked in 1×PBS containing 2% horse serum, 2% BSA, and 0.1% non-ionic detergent NP40 for 30 minutes. Anti-α-actinin antibody was added at a dilution of 1:800 in fresh preblock solution and incubated for an additional 30 minutes. Subsequently, the cells were washed three times in 1×PBS with 0.1% NP40. Anti-mouse TRITC-conjugated secondary antibody was then added at a dilution of 1:400 for 30 minutes in pre-block solution and the cells were again washed three times in 1×PBS containing 0.1% NP40. Nuclear staining for DNA was performed with 0.5 μg/ml of bisbenzimide in PBS for 15 minutes followed by three rinses with PBS.

ANF promoter = assay: ANF promoter-reporter (luciferase) activity in transfected cardiomyocytes exposed to agonists; type: cell-based, rat
Experimental: as §1
Transient transfection. It was necessary to culture the isolated cardiomyocytes in serum-free medium to eliminate effects on gene expression mediated through serum response elements. Primary myocardial cultures were first washed with serum-free growth medium and then maintained in serum-free Medium 199 supplemented with Nutridoma HU (Boehringer Mannheim Corporation, Indianapolis, Ind.) which contained human serum albumin, bovine insulin and human transferrin. Transfection were carried out by using a liposome-based transfecting agent, Lipofectamine (Life Technologies, Grand Island, N.Y.). The procedures used for transient transfection were followed as the manufacturer's instructions. The optimal values including DNA concentration, lipofectamine concentration, and time length for tansfection were determined prior to experiments carried out in this study. Briefly, for each transfection, 2 μg DNA and 20 μg lipofectamine were diluted into separate vials containing 300 μl serum-free nutridoma supplemented medium. The two solutions were then combined and incubated at room temperature for 15-45 minutes to allow DNA-liposome complexes to form. For each transfection, 2.4 ml of serum-free nutridoma supplemented medium were added to the tube containing the DNA-liposome complexes and the diluted mixture was overlaid onto the adherent cardiomyocytes that had been rinsed once with 2 ml of serum-free medium in a 60-mm tissue culture plate. The cell cultures were incubated at 37° C. in a C02 incubator containing 5% CO2 for 24 hours, at which time various test compounds were added. Promoter activities from cell extracts were assayed within 48 hours following the start of transfection.
For α1-adrenergic stimulation, 100 μM PE (Sigma, St. Louis, Mo.) was added to the cells. DOB (Gensia Laboratories, Ltd., Irving, Calif.), a selective β1-adrenergic agonist, was added at a concentration of 10 μM. To correct for variation in transfection efficiencies, pβGal-Control was used as an internal control. Chemiluminescent β-galactosidase activity was assayed by using an aliquot of the same cell lysates collected for the luciferase assay and measured in the same luminometer as described below.
Firefly luciferase assay. The firefly luciferase assay is based upon a commercial (Promega, Madison, Wis.) long term “glow” type of bioluminescence assay. Briefly, activation of luciferin results in the formation of an enzyme-bound luciferyl adenylate (luciferyl-AMP). […]

ANF mRNA = assay: ANF message level by Northern analysis in neonatal cardiocytes; type: cell-based, rat
Experimental: FIG. 10 presents data showing the effects of adrenoceptor agonists on promoter-reporter activities for ANF, skeletal a-actin and cardiac a-actin, and a time course of effects of DOB on ANF message levels. FIGS. 10A, B, and C are bar graphs showing luciferase reporter levels after transfection of ANF, skeletal α-actin, and cardiac a-actin, respectively, into ventricular myocardial cells, and treatment, 24 hours after transfection, with PE (100 μM), DOB (10 μM), or TGF-β1 (1 ng/ml). Values are corrected for transfection efficiency and reported as the mean±SD from at least three experiments. FIG. 10D. Ventricular myocardial cells were switched to serum-free medium. […] 24 hours after incubation, total RNA was extracted and analyzed by Northern blot. […]
Northern Analysis. […] After washing at high stringency (0.1×SSPE, 0.1% SDS, 65° C.), hybridized biotinylated cDNA were detected by using Chemiluminescent Detection System (TROPIX, Inc., Bedford, Mass.) and then exposed to X-ray film. The ANF bands were quantitated with a Howteck gel scanner (PDI, Huntington station, N.Y.) and normalized to the 28 S rRNA signal to correct for loading and/or transfer efficiencies.
Primary cultures of neonatal cardiocytes were kept in serum-free medium and β1 agonist, DOB, was applied to the cells at various times. ANF message RNA was evaluated in the end by northern analysis protocols as described above. […]

[4] = PE exposure, construct includes PERE motif
[5] = DOB 10 μM, added 24 hours after transfection

Molecule: C[C@H]1c2cccc(O)c2C(O)=C2C(=O)[C@]3(O)C(O)=C(C(N)=O)C(=O)[C@@H](N(C)C)[C@@H]3[C@@H](O)[C@@H]21 [doxcycline]
- transactivation of the tTA-dependent target gene ([1]; 1 μg/ml after transfection, tTA-transfected cells): markedly repressed
- low level expression of the target gene caused by the treatment itself ([1]; 1 μg/ml, 12 hour post-transfection): ~4 fold

Molecule: CNC[C@H](O)c1cccc(O)c1 [PE, phenylephrine]
- induction of cardiac α-actin promoter-reporter activity over control cells (cardiac α-actin promoter): not significantly stimulated
- transactivation of skeletal α-actin reporter activity over control cells ([2]; PE 100 μM): 200%
- cardiomyocyte size and sarcomeric assembly after exposure to agonist [3]: dramatic increase in size and sarcomeric assembly
- transactivation of ANF reporter activity over control cells (ANF promoter; PE 100 μM): 200%
- activation of ANF50 (NP338) nested deletion promoter-reporter construct (ANF promoter; PE exposure, construct has lost PERE motif): not
- activation of ANF135 (NP325) nested deletion promoter-reporter construct (ANF promoter; [4]): activated
- activation of ANF700 (NP337) nested deletion promoter-reporter construct (ANF promoter; [4]): activated

Molecule: TGF-β1: type β-transforming growth factor
- induction of cardiac α-actin promoter-reporter activity over control cells (cardiac α-actin promoter): 700%

Molecule: CC(CCc1ccc(O)cc1)NCCc1ccc(O)c(O)c1 (stereo not drawn) [DOB, dobutamine]
- decrease of cardiac α-actin promoter-reporter activity (cardiac α-actin promoter; [5]): approximately 50%
- decrease of skeletal α-actin promoter-reporter activity [2, 5]: approximately 50%
- decline of ANF mRNA compared to control values (ANF mRNA; 24 hours after DOB exposure): 75%
- abundance of ANF message relative to control cultures (ANF mRNA; within 16 hours of DOB exposure, serum-free medium): about half
- CaMKII autonomous activation, increase over unstimulated heart tissues (CaM kinase II): ~170%
- decrease of ANF promoter-reporter activity (ANF promoter; [5]): approximately 50%

Further lines, results first:

- CaMKII autonomous activation, increase over unstimulated heart tissues (CaM kinase II): ~170%
Molecule: CC(C)NCC(O)c1ccc(O)c(O)c1 (stereo not drawn) [ISO, isoproterenol]

- effect on DOB- or ISO-induced CaMKII autonomous activity (CaM kinase II; PROP 20 μM added prior to agonist): blocked activation
Molecule: CC(C)NCC(O)COc1cccc2ccccc12 (stereo not drawn) [PROP, propanolol]
